Several values for one entry are separate records, joined by “and”; a condition that tells them apart may be missing. Equal entries are not always repeated.
Tested on: Rh18 complex spheroid viability, percent test/control
Assay: Anticancer human tumor Rh18 cell line growth inhibition [Asc];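 also: spheroids exposed to compound for 7 days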;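 as to viability, T/C: 100% = DMSO vehicle control wells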
Details: for viability, T/C: stronger effect = lower value
Experimental: Multicellular complex tumor spheroid response to apoptosis pathway targeting inhibitors Alrizomadlin, Pelcitoclax, and Dasminapant in combination with a variety of drugs and investigational agents in selected tumor cell lines
The MDM2 inhibitor alrizomadlin, the Bcl-2/Bcl-xL inhibitor pelcitoclax, and the IAPs inhibitor dasminapant were evaluated both individually and in combination with standard of care and investigational anticancer small molecules within a complex spheroid model of solid tumors. . Complex spheroids include a stromal component modeled by human endothelial cells (HUVEC) and fibroblasts modeled by human mesenchymal stem cells (MSCs). The concentration ranges selected for each drug and investigational agent were based upon clinically achievable concentrations if the clinical Cmax of the agent was known.
Compounds. The drugs and investigational agents: alrizomadlin (APG-115; NSC831270), pelcitoclax (APG-1252; NSC835773), dasminapant (APG-1387;NSC834197), TAK-243 (NSC785004), copanlisib (NSC809693), olaparib (NSC753686), talazoparib (NSC767125), cobimetinib (NSC 768068), eltanexor (KPT-8602, NSC 794443), abemaciclib (NSC 768073), sotorasib (NSC818433), adagrasib (NSC 831453), MRTX-1133 (NSC 836407), Iadademestat (ORY1001, NSC 806812), and RMC-4630 (NSC839698), were obtained from the NCI Developmental Therapeutics Program Chemical Repository. The FDA-approved anticancer drug set is available from the Developmental Therapeutics Program at https://dtp.cancer.gov/organization/dscb/obtaining/available plates.htm. […] The stock solutions were prepared in dimethyl sulfoxide (DMSO, Sigma-Aldrich, St. Louis, MO, cat. D2650) at 800-fold the tested concentration and stored at -70 degrees C prior to their use. All drugs and investigational agents were tested over a range starting from a high concentration at or near the clinical Cmax and decreasing in half-log increments. If the clinical Cmax for an agent had not been determined, the highest concentration tested was 10 microM.
The patient-derived cancer (PDC) cell lines include five colon adenocarcinomas: 186277-243-T-J2-PDC, 616215-338-R-J1-PDC, 439559-082-T-J2-PDC, 463943-066-T-J2-PDC, and 519858-162-T-J1-PDC; three pancreatic carcinomas: 323965-272-R-J2-PDC, 521955-158-R6-J3-PDC, and 521955-158-R2-J5-PDC; two uterine sarcomas: 327498-152-R-J2-PDC and 993429-296-R-J1-PDC; two rhabdomyosarcomas: 755483-174-R-J1-PDC and 772245-204-R-J1-PDC; two soft tissue sarcomas: 126254-015-R-J1-PDC and 494315-158-R-J1-PDC; two malignant fibrous histiocytomas: 317291-083-R-J1-PDC and 596521-263-R-J1-PDC; two breast carcinomas: 171881-019-R-J1-PDC and 885512-296-R-J2-PDC; and one ovarian carcinoma: 6556581-035-R-J-PDC were obtained from the NCI PDMR, (https://pdmr.cancer.gov). The established cell lines HSSY-2 synovial sarcoma (RRID:CVCL 8719), SYO-1 synovial sarcoma (RRID:CVCL_7146), MPNST malignant peripheral neural sheath tumor were obtained from the Sloan Kettering Institute. The following established cell lines were purchased from the American Type Culture Collection (ATCC, Manassas, VA), Sor the received from the NCI repository:, PANC-1 pancreatic carcinoma (CRL-1469, RRID:CVCL_0480), OVCAR-5 ovarian carcinoma (RRID:CVCL_1628), OVCAR-8 ovarian carcinoma (RRID:CVCL_1629), , MCF-7 breast carcinoma (CRL-12584, RRID:CVCL_0031), MDA-MB-231 breast carcinoma (CRL-12532, RRID:CVCL_0062), NCI-H1876 small cell lung carcinoma (CRL-5902, RRID:CVCL_1503), NCI-H510A small cell lung carcinoma (HTB-184, RRID:CVCL_1565), NCI-H1417 (CRL-5869, RRID:CVCL_1469), and NCI-H196 small cell lung carcinoma (CRL-5823, RRID:CVCL_1509). Dr. Peter Houghton (Greehey Children's Cancer Research Institute, University of Texas Health Science Center, San Antonio, TX) provided Rh-18 rhabdomyosarcoma (RRID:CVCL_1659). Pooled donor human umbilical vein endothelial cells (HUVEC, Lonza, cat. CC-2519) and human mesenchymal stem cells (hMSC, Lonza, cat. PT-2501) were purchased from Lonza (Walkersville, MD).
Cell Culture. […]

[1] = compound alone, run of 10/11/2022

SMILES	IC50 (curve of compound)	viability, T/C (compound 0.0316 µM)	viability, T/C (compound 0.1 µM)	viability, T/C (compound 0.316 µM)	viability, T/C (compound 1 µM)	viability, T/C (compound 3.16 µM)	viability, T/C (compound 10 µM)	viability, T/C (compound 0.00316 µM)	viability, T/C (compound 0.01 µM)	other results
CNC(C)C(=O)NC1CN(S(=O)(=O)c2cccc(S(=O)(=O)N3CCC4CCC(C(=O)NC(c5ccccc5)c5ccccc5)N4C(=O)C(NC(=O)C(C)NC)C3)c2)CCC2CCC(C(=O)NC(c3ccccc3)c3ccccc3)N2C1=O (centres undefined)	21.6 nM and 33.4 nM	–	–	–	–	–	–	80.3% and 79.9% and 75.9%	–	IC50 (compound alone, run of 11/15/2022): > 1000 nM
Cc1c(S(C)(=O)=O)c(-c2cc(F)cc(N3CCN(c4ccc(NS(=O)(=O)c5ccc(NC(CCN6CCC(C(=O)OCCCP(=O)(O)O)CC6)CSc6ccccc6)c(S(=O)(=O)C(F)(F)F)c5)cc4)CC3)c2)c(-c2ccc(Cl)cc2)n1C(C)C (centres undefined)	–	–	14.1% [middle of 14 runs]	10% [middle of 14 runs]	9.12% [middle of 13 runs]	6.19% [middle of 14 runs]	5.39% [middle of 14 runs]	–	–	IC50 [1]: < 100 nM
Cn1ncnc1[C@H]1c2n[nH]c(=O)c3cc(F)cc(c23)N[C@@H]1c1ccc(F)cc1	12.9 nM and 10.8 nM and 3.16 nM	41.5% and 46.6% and 46.8%	41.6% and 51.8% and 40.3%	–	–	–	–	79.1% and 73.3% and 49.3%	51.2% and 49.3% and 46.3%	viability, T/C (compound 0.000316 µM): 113% and 102% and 90.3%; viability, T/C (compound 0.001 µM): 101% and 99.1% and 69.5%
NC(=O)C(=Cn1cnc(-c2cc(C(F)(F)F)cc(C(F)(F)F)c2)n1)c1cncnc1	38.8 nM and 58.3 nM and 88.7 nM	–	–	–	–	–	–	–	–	viability, T/C (compound 0.000949 µM): 85.9% and 82.9% and 85.5%; viability, T/C (compound 0.003 µM): 93.2% and 85.7% and 79.2%; viability, T/C (compound 0.00949 µM): 92.8% and 63.3% and 67.5%; viability, T/C (compound 0.03 µM): 53.9% and 57.6% and 61%; viability, T/C (compound 0.0949 µM): 40.6% and 46.8% and 52.6%; viability, T/C (compound 0.3 µM): 32.3% and 31.4% and 34.7%
NC1CCC(NC2CC2c2ccccc2)CC1 (centres undefined)	> 100 nM	120% and 98.2% and 110%	114% and 119% and 102%	–	–	–	–	124% and 114% and 102%	120% and 114% and 103%	viability, T/C (compound 0.000316 µM): 135% and 130% and 96.5%; viability, T/C (compound 0.001 µM): 134% and 133% and 98%
O=C(c1cc(Cc2n[nH]c(=O)c3ccccc23)ccc1F)N1CCN(C(=O)C2CC2)CC1	919 nM and 3840 nM and 2050 nM	108% and 86.4% and 91.5%	99.5% and 81.7% and 85.2%	59.4% and 79.7% and 82.2%	57.3% and 63.1% and 73.7%	44.9% and 53% and 35.5%	44.7% and 41.7% and 29.5%	–	–	–
O=C(c1ccc(F)c(F)c1Nc1ccc(I)cc1F)N1CC(O)([C@@H]2CCCCN2)C1	589 nM and 729 nM and 730 nM	91.3% and 70.7% and 83.2%	77.7% and 78.5% and 78%	85% and 95.7% and 75.4%	20.7% and 36.6% and 40.9%	–	–	91.5% and 92.7% and 97.3%	76.6% and 84.3% and 100%	–

More lines, main results first:

IC50 (curve of compound)	SMILES	viability, T/C (compound 0.0316 µM)	viability, T/C (compound 0.1 µM)	viability, T/C (compound 0.316 µM)	viability, T/C (compound 1 µM)	viability, T/C (compound 3.16 µM)	viability, T/C (compound 10 µM)	viability, T/C (compound 0.00316 µM)	viability, T/C (compound 0.01 µM)	other results
8120 nM and > 10000 nM	C#Cc1c(F)ccc2cc(O)cc(-c3ncc4c(N5CC6CCC(C5)N6)nc(OCC56CCCN5CC(F)C6)nc4c3F)c12 (centres undefined)	79.3% and 89.2% and 129%	74.3% and 82.3% and 122%	71.5% and 63.9% and 81.2%	91.2% and 75.4% and 66.3%	87.4% and 64.3% and 106%	43.4% and 60.4% and 67.7%	–	–	–
2410 nM and 2320 nM and 2350 nM	C=C(F)C(=O)N1CCN(c2nc(OCC3CCCN3C)nc3c2CCN(c2cccc4cccc(Cl)c24)C3)CC1CC#N (centres undefined)	94.1% and 96.8% and 96.1%	98.8% and 93.5% and 87.2%	90.9% and 56.4% and 91.5%	97.4% and 101% and 93.5%	35.8% and 36.4% and 35.5%	0.31% and 0.29% and 0.27%	–	–	–
> 10000 nM	C=CC(=O)N1CCN(c2nc(=O)n(-c3c(C)ccnc3C(C)C)c3nc(-c4c(O)cccc4F)c(F)cc23)C(C)C1 (centres undefined)	117% and 122% and 92.1%	95.2% and 169% and 115%	106% and 125% and 109%	118% (2×) and 104%	133% and 137% and 106%	115% and 89.8% and 92%	–	–	–
17.8 nM and 11.6 nM	CCN1C(C(=O)NC23CCC(C(=O)O)(CC2)CC3)C(c2cccc(Cl)c2F)C2(C(=O)Nc3cc(Cl)ccc32)C12CCCCC2 (centres undefined)	–	–	–	–	–	–	–	–	viability, T/C (compound 0.00949 µM): 53.3% and 52.8%; viability, T/C (compound 0.03 µM): 38.3% [middle of 15 runs]; viability, T/C (compound 0.0949 µM): 21.1% [middle of 15 runs]; viability, T/C (compound 0.3 µM): 13% [middle of 15 runs]; viability, T/C (compound 0.949 µM): 9.56% [middle of 15 runs]; viability, T/C (compound 3 µM): 9.14% [middle of 15 runs]; IC50 [1]: < 30 nM
> 1000 nM	CCN1CCN(Cc2ccc(Nc3ncc(F)c(-c4cc(F)c5nc(C)n(C(C)C)c5c4)n3)nc2)CC1	85.2% and 77.4% and 70.8%	66.5% and 65.2% and 78.4%	85.7% and 111% and 72.7%	143% and 152% and 65.1%	–	–	88.8% and 66.9% and 96.3%	115% and 84.9% and 92.1%	–
10.1 nM and 11.8 nM and 11.5 nM	COc1c(OCCCN2CCOCC2)ccc2c3n(c(=NC(=O)c4cnc(N)nc4)nc12)CCN3	15.9% and 20.9% and 23.7%	6.98% and 6.83% and 7.49%	3.1% and 3.42% and 2.99%	1.11% and 1.4% and 0.6%	–	–	64.9% and 91.3% and 71.5%	50.6% and 55% and 53.8%	–
65.4 nM and 61.2 nM and 47.5 nM	Cc1nc(N2CCC3(CC2)COC(C)C3N)c(CO)nc1Sc1ccnc(N)c1Cl (centres undefined)	–	–	–	–	–	–	–	–	viability, T/C (compound 0.00949 µM): 73.9% and 66.6% and 93.2%; viability, T/C (compound 0.03 µM): 59.7% and 84% and 54%; viability, T/C (compound 0.0949 µM): 42.7% and 34.4% and 43%; viability, T/C (compound 0.3 µM): 35.3% and 19.2% and 23.9%; viability, T/C (compound 0.949 µM): 25.5% and 25.6% and 19.7%; viability, T/C (compound 3 µM): 13.4% and 15.9% and 15.6%

From PubChem BioAssay AID1963431 (Molecular Pharmacology Branch, DTP, NCI, 2024)
